Consider three compounds from ChEMBL document CHEMBL1141021, “Anthranilimide-based glycogen phosphorylase inhibitors for the treatment of Type 2 diabetes: 2. Optimization of serine and threonine ether amino acid residues” (Bioorg Med Chem Lett, 2009).

One may read the AUC as concentration integrated over time. In general, half-life refers to the time needed for the level to fall by half in the phase considered. A higher half-life goes with slow decline. By bioavailability is commonly meant the share of a dose that reaches the circulation, judged against a reference dose that is usually intravenous.

Common to all, as to assay type: ADME, organism-based
The subject of one data set is Rattus norvegicus. As to the kind of experiment: Dose normalized AUC (0 to infinity) in Sprague-Dawley rat at 1 mg/kg, po. More on the design: dose 1 mg/kg, route oral, time infinity. The settings on record: in vivo.
Data set [1] is described as follows: Clearance in Sprague-Dawley rat at 10 mg/kg, po or […], iv. The following applies: in vivo.
The nature of data set [2]: Volume of distribution at steady state in Sprague-Dawley rat at 10 mg/kg, po or […], iv. The settings on record: in vivo, read-out: Vdss.
A short description of data set [3]: Half life in Sprague-Dawley rat at 10 mg/kg, po or […], iv. The following applies: in vivo.
The nature of data set [4]: Oral bioavailability in Sprague-Dawley rat at 10 mg/kg. The following applies: in vivo.

Compound `CCCC[C@H](NC(=O)c1cc2ccccc2cc1NC(=O)Nc1c(C)cc(C)cc1C)C(=O)O` had an AUC with Rattus norvegicus of 320 ng·h/mL. The same compound had a clearance in data set [1] of 4 mL/min/kg. In addition, the Vd in data set [2] was 0.6 L/kg. Further, in data set [3], the half-life was 2.8 h. The bioavailability in data set [4] came out at 8%.

On to `Cc1cc(C)c(NC(=O)Nc2cc3ccccc3cc2C(=O)N[C@H](C(=O)O)[C@@H](C)OC(C)(C)C)c(C)c1`, for which the AUC in the data set with Rattus norvegicus was 514 ng·h/mL. The clearance in data set [1] was determined as 13 mL/min/kg. The Vd in data set [2] came to 0.5 L/kg. This compound also gave a half-life in data set [3] of 3 h. For the same compound, the bioavailability in data set [4] was determined as 40%.

The compound `Cc1cc(C)c(NC(=O)Nc2cc3ccccc3cc2C(=O)N[C@@H](COC(C)(C)C)C(=O)O)c(C)c1` yielded an area under the curve (AUC) in the data set on Rattus norvegicus of 256 ng·h/mL. In data set [1], the clearance was determined as 26 mL/min/kg. Further, the Vd in data set [2] stood at 1.9 L/kg. Also, the half-life in data set [3] was 4 h. In data set [4], this compound displayed a bioavailability of 17%.
